Assay results as given in patent US20110294782A1, “SMALL MOLECULE PAK INHIBITORS” (Massachusetts Institute of Technology, priority 2006, published 2011).
Where two headings read alike, the source gives them in different places.

How the values were obtained:
PAK4 = PAK4 (Homo sapiens, UniProt O96013); assay: biochemical
Description: When these three components are combined, the test substance is tested for its ability to compete, in a concentration-dependent manner, with the immobilized kinase bait probe for binding for binding to the phage-PAK catalytic domain. Afterwards, the amount of bait probe-bound phage-PAK can be detected, for example, by a phage plaque assay and/or quantitative PCR of phage DNA. The amount of probe-bound phage-PAK is inversely proportional to the affinity of the candidate inhibitor for the kinase and can be used in determining a Kd value of the test substance for the PAK catalytic site, as described below. […]
T7 kinase-tagged phage strains were grown in parallel in 24- or 96-well blocks in an E. coli host derived from the BL21 strain. […] Phage titer in the eluates was measured by standard plaque assays or by quantitative PCR. […]
Kd (probe) is the binding constant for the interaction between the kinase and the immobilized ligand, [Probe] is the concentration of the immobilized ligand [test] ½ is the concentration of the free candidate compound at the midpoint of the transition. […] Under these conditions, binding constants measured for the interaction between kinases and candidate compounds (Kd (test)) are therefore independent of the affinity of the immobilized ligand for the kinase (Kd (probe)). […]

PAK6 = target: T1, PAK6 (Homo sapiens, UniProt Q9NQU5); assay: Competitive binding assay (Ambit), phage-displayed PAK vs immobilized staurosporine bait; conditions: 25° C., 1 hour, 0.1% DMSO, read-out: Kd value, Test PAK Inhibitor Affinity Assay
T1 construct: full length PAK or a PAK catalytic domain expressed on the surface of T7 bacteriophage; host or cells: T7 phage (modified T7 Select 10-3) grown in a BL21-derived E. coli host
Description: (§1) Binding data were fit to the equation:
(§2) PFU=L+((H−L)*(Kd(test)/(Kd(test)+[candidate])))

PAK7 = target: T2, PAK7 (Homo sapiens, UniProt Q9P286); assay: as above; conditions: 25° C., 1 hour, 0.1% DMSO, read-out: Kd value, Test PAK Inhibitor Affinity Assay
T2 construct: full length PAK or a PAK catalytic domain expressed on the surface of T7 bacteriophage; host or cells: T7 phage (modified T7 Select 10-3) grown in a BL21-derived E. coli host
Description: as §1, §2

PAK2 = target: T3, PAK2 (Homo sapiens, UniProt Q13177); assay: as above
T3 construct: full length PAK or a PAK catalytic domain expressed on the surface of T7 bacteriophage; host or cells: T7 phage (modified T7 Select 10-3) grown in a BL21-derived E. coli host
Description: as §1, §2

PAK1 = target: T4, PAK1 (Homo sapiens, UniProt Q13153); assay: as above
T4 construct: full length PAK or a PAK catalytic domain expressed on the surface of T7 bacteriophage; host or cells: T7 phage (modified T7 Select 10-3) grown in a BL21-derived E. coli host
Description: as §1, §2

T3 sequence (Q13177 whole entry, the tested form may be a part): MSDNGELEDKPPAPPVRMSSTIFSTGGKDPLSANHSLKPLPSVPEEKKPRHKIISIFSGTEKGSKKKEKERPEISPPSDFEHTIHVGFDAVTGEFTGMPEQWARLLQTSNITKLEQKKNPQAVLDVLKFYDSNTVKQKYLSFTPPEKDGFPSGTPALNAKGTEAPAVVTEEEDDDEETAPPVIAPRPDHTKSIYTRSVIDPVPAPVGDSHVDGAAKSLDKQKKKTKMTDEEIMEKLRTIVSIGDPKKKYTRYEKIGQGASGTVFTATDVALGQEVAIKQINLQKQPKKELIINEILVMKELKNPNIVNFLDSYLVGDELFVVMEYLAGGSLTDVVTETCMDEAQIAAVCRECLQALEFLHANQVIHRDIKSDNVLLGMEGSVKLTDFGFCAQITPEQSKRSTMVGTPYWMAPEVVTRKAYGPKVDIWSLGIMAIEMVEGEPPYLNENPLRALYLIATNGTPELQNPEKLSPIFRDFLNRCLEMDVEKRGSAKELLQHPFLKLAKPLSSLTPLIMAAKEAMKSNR
T1 sequence (Q9NQU5 whole entry, the tested form may be a part): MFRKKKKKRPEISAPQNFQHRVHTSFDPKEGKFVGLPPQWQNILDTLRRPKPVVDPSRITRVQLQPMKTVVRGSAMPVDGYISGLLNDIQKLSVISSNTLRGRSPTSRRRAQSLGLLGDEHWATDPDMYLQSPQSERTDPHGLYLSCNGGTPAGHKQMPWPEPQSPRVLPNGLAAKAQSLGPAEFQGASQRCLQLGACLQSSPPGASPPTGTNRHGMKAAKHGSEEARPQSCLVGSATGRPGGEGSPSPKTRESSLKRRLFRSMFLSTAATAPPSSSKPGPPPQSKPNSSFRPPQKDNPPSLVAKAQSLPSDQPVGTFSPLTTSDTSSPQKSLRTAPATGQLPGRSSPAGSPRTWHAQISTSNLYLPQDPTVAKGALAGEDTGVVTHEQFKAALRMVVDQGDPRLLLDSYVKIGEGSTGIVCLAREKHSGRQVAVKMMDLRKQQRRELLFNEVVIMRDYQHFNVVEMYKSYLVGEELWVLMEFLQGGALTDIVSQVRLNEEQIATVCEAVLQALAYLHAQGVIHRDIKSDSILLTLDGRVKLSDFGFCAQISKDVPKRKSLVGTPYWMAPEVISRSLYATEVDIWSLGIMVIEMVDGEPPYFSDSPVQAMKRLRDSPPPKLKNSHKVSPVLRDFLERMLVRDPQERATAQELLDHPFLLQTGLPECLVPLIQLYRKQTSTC
T4 sequence (Q13153 whole entry, the tested form may be a part): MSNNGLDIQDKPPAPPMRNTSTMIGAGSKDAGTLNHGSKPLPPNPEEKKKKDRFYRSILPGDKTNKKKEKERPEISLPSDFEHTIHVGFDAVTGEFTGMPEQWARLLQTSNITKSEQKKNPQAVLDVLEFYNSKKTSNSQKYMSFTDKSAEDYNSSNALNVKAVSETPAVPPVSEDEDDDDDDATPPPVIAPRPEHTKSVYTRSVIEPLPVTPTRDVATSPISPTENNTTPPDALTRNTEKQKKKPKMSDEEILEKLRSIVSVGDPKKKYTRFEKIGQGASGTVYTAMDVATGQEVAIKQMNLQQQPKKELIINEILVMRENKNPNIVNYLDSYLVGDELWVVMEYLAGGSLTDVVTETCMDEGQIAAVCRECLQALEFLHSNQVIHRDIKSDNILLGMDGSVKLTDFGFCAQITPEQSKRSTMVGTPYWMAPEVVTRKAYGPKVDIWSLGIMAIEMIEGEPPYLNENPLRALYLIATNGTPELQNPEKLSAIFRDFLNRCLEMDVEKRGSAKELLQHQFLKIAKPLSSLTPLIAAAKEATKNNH
T2 sequence (Q9P286 whole entry, the tested form may be a part): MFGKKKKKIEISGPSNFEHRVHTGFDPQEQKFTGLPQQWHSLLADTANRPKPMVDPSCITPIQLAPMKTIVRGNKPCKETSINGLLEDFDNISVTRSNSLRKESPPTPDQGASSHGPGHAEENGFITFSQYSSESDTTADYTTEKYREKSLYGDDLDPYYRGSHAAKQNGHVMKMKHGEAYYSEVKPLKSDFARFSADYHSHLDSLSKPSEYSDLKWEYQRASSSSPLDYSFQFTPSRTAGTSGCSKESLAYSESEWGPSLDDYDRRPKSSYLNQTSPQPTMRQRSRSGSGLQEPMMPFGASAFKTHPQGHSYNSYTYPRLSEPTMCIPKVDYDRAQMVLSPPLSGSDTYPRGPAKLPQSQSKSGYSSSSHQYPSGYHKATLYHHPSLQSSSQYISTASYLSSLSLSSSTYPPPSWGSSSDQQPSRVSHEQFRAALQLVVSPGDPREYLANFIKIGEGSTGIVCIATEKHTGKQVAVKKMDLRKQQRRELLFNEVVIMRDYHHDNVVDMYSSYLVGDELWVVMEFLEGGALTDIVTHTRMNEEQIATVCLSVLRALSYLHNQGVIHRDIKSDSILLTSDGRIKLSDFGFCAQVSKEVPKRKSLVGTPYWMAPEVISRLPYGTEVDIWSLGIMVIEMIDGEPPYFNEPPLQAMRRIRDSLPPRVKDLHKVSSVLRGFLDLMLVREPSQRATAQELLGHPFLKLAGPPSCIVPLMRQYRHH
Chain of PAK4 (O96013 whole entry): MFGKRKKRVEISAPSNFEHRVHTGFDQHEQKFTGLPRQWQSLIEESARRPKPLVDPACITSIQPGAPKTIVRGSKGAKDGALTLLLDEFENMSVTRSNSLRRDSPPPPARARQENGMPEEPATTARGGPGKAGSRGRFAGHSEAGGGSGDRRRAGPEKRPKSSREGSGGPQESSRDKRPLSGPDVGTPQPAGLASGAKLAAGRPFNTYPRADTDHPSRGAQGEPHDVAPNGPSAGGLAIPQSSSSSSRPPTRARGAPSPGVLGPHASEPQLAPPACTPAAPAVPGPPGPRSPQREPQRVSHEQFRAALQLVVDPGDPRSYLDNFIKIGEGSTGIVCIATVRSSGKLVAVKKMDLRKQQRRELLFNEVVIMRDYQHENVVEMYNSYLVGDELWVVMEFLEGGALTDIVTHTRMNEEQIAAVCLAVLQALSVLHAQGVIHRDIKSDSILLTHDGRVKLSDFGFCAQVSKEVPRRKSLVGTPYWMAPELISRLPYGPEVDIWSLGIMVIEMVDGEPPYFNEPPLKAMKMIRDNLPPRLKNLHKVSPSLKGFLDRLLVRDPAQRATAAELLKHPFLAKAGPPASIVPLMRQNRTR

SMILES	Kd (PAK4) [µM]	Kd (PAK6) [µM]	Kd (PAK7) [µM]	Kd (PAK2; PAK2, 25° C., 1 hour, 0.1% DMSO, read-out: Kd value, Test PAK Inhibitor Affinity Assay) [µM]	Kd (PAK1; PAK1, 25° C., 1 hour, 0.1% DMSO, read-out: Kd value, Test PAK Inhibitor Affinity Assay) [µM]	Kd (PAK2) [µM]	Kd (PAK1) [µM]
CCOc1cc2ncc(C#N)c(Nc3ccc(F)c(Cl)c3)c2cc1NC(=O)/C=C/CN(C)C [EKB-569]	≥ 10	≥ 10	≥ 10	≥ 10	< 5	–	–
Nc1nc(Nc2ccc(S(N)(=O)=O)cc2)nn1C(=O)c1c(F)cccc1F [JNJ-7706621]	–	< 5	–	–	–	≥ 10	≥ 10
